As a reminder, the MIC is the least concentration at which growth counts as inhibited.

In brackets after ≈: the same amount, converted by molar mass. Where two headings read alike, the source gives them in different places.

The values below come from patent US12655101B2, “Small molecules with antibacterial activity” (NEW MEXICO TECH UNIVERSITY RESEARCH PARK CORPORATION, priority 2021, dated 2026).

One experiment concerns S. aureus. Description: Evolution of resistance in S. aureus over 32 days. Type of experiment: cell-based. To be noted: for development of resistance (increase in MIC): 32 days of sub-inhibitory exposure; for MIC: Staphylococcus aureus. An excerpt:
Over a period of 32 days, S. aureus cells were exposed to sub-inhibitory concentrations of the indicated compound, norfloxacin, or oxacillin and sub-cultured at the newly emerged, sub-inhibitory concentration.

The subject of experiment [1] is A. baumannii ATCC BAA-1797. The experiment in a line: MIC on A. baumannii ATCC BAA-1797. Format: cell-based. As to the method:
A. baumannii: A. baumannii ATCC BAA-1797 was grown from a glycerol stock by placing a small volume of cells onto a MHA plate. The MHA plate was incubated overnight at 37° C. A single colony was used to inoculate MHB to obtain a bacterial broth suspension. The MHB broth suspension was grown at 37° C. on a rotary shaking incubator (100 rpm) for 12 hours. The bacterial cell concentration was adjusted to ˜5×10^5 CFU/mL in MHB or MHB+10%, 20% or 40% FBS using OD at 595 nm. 500 μL aliquots of the adjusted bacterial cell suspension were placed into borosilicate glass tubes. The cell suspensions were treated with a compound of interest, and the treatments were serially diluted two-fold. The culture tubes were incubated for 18 hours at 37° C. Efficacy was either assessed visually or by adding 10% v/v MTT (5 mg/mL stock) after the 18 hour incubation period. The cell suspensions were subsequently incubated for 10 minutes to allow the MTT reagent to carry out the colorimetric reaction. The OD was read at 595 nm.

The next experiment concerns MRSA ATCC BAA-44. Description: MIC on MRSA ATCC BAA-44. Type of experiment: cell-based, S. aureus. To be noted: for MIC: Staphylococcus aureus. As to the method:
MRSA BAA-44: MRSA ATCC BAA-44 was grown from a glycerol stock by placing a small volume of cells onto a Mueller-Hinton agar plate (MHA). The MHA plate was incubated overnight at 37° C. A single colony was used to inoculate Mueller-Hinton broth (MHB) to obtain a bacterial broth suspension. The MHB broth suspension was grown at 37° C. on a rotary shaking incubator (100 rpm) for 12 hours. The bacterial cell concentration was adjusted to ˜5×10^5 colony forming units per milliliter (CFU/mL) in MHB−/+10, 20, or 40% FBS using optical density (OD) at 595 nm. 500 μL aliquots of the adjusted bacterial cell suspension were placed into borosilicate glass tubes. The cell suspensions were treated with 100 μM compound of interest and serially diluted two-fold. The culture tubes were incubated for 18 hours at 37° C. Efficacy was either assessed visually or by adding 10% v/v MTT (5 mg/mL stock) after the 18 hour incubation period, where the cell suspensions were subsequently incubated for 10 minutes to allow the MTT reagent to carry out the colorimetric reaction.

[2] abbreviates: 0 h, read-out: Initial MIC Day 0.
Where [3] appears, read: Acinetobacter baumannii, ATCC 1797 / ATCC BAA-1797, 0% FBS, read-out: MIC (μM) in MDR A. baumannii ATCC 1797 0% FBS.
The mark [4] stands for this setting: Acinetobacter baumannii, ATCC 1797 / ATCC BAA-1797, read-out: MIC (μM) in MDR A. baumannii ATCC 1797 40% FBS, 40% FBS.
Setting [5] is: no serum (note in the cell), read-out: MIC (μM) in MRSA BAA-44.
The mark [6] stands for this setting: Acinetobacter baumannii, ATCC 1797 / ATCC BAA-1797, 10% FBS, read-out: MIC (μM) in MDR A. baumannii ATCC 1797 10% FBS.
The mark [7] stands for this setting: 10% FBS, read-out: MIC (μM) in MRSA BAA-44 10% FBS.
Setting [8] is: 0% FBS, read-out: MIC (μM) in MDR A. baumannii ATCC 1797 0% FBS.
[9] abbreviates: in FBS (note in the cell, percentage not given), read-out: MIC (μM) in MRSA BAA-44.

Turning to `Cc1onc(-c2ccccc2)c1C(=O)N[C@@H]1C(=O)N2[C@@H]1SC(C)(C)[C@@H]2C(=O)O` [Oxacillin, reference compound], the “development of resistance (increase in MIC)” value in the experiment on S. aureus is “Dramatic resistance”. In addition, the MIC was 0.25 µg/mL with S. aureus (setting [2]) and over 200 µg/mL in the experiment with S. aureus (read-out: Final MIC Day 32).

Regarding `Clc1ccc(/N=N/c2c[nH]c3ccccc23)cc1` [Compound 48, (E)-3-((4-chlorophenyl)diazenyl)-1H-indole], the minimal inhibitory concentration (MIC) with S. aureus (setting [2]) and in the experiment on S. aureus (read-out: Final MIC Day 32) was 8 µM throughout.

For the molecule `CCn1cc(C(=O)O)c(=O)c2cc(F)c(N3CCNCC3)cc21` [Norfloxacin, reference compound], in the experiment on S. aureus, the “development of resistance (increase in MIC)” value was “Dramatic resistance”. The minimum inhibitory concentration (MIC) was 2 µg/mL in the experiment with S. aureus (setting [2]) and over 100 µg/mL in the experiment on S. aureus (read-out: Final MIC Day 32).

`Clc1ccc(Oc2c(-c3ccc(Cl)cc3)[nH]c3ccc(Cl)cc23)cc1` [Compound 50, 5-chloro-3-(4-chlorophenoxy)-2-(4-chlorophenyl)-1H-indole]: the MIC with S. aureus (setting [2]) is 0.25 to 0.5 µM; in the experiment with S. aureus (read-out: Final MIC Day 32), over 32 µM.

With `Clc1ccc(N/N=C/c2c[nH]c3ccccc23)cc1` [Compound 7, (E)-3-((2-(4-chlorophenyl)hydrazineylidene)methyl)-1H-indole], the minimal inhibitory concentration (MIC) in experiment [1] (Acinetobacter baumannii, ATCC 1797 / ATCC BAA-1797, read-out: MIC (μM) in MDR A. baumannii ATCC 1797 0% FBS) worked out at 5 µM (≈ 1.35 µg/mL); in experiment [1] (Acinetobacter baumannii, ATCC 1797 / ATCC BAA-1797, read-out: MIC (μM) in MDR A. baumannii ATCC 1797 10% FBS) it was 25 µM (≈ 6.74 µg/mL); in experiment [1] (Acinetobacter baumannii, ATCC 1797 / ATCC BAA-1797, read-out: MIC (μM) in MDR A. baumannii ATCC 1797 40% FBS), 50 µM (≈ 13.5 µg/mL); with MRSA ATCC BAA-44 (read-out: MIC (μM) in MRSA BAA-44 10% FBS), 100 µM (≈ 27 µg/mL).

On to `NCCCC(=O)Oc1cccc2[nH]cc(/C=N/Nc3ccc(F)cc3)c12` [Compound 41, (E)-3-((2-(4-fluorophenyl)hydrazineylidene)methyl)-1H-indol-4-yl 4-aminobutanoate], for which the minimum inhibitory concentration (MIC) in experiment [1] (setting [3]) is 12.5 µM (≈ 4.43 µg/mL); in experiment [1] (setting [4]) it was over 100 µM. For the same molecule, the “MIC (μM) in MRSA BAA-44” value against MRSA ATCC BAA-44 (no serum (note in the cell)) worked out at 100 no serum μM.

Regarding `Brc1ccc2c(N/N=C/c3c[nH]c4cccc(OCc5ccccc5)c34)ccnc2c1` [Compound 43, (E)-4-(2-((4-(benzyloxy)-1H-indol-3-yl)methylene)hydrazineyl)-7-bromoquinoline], the minimal inhibitory concentration (MIC) is 6 µM (≈ 2.83 µg/mL) in experiment [1] (setting [3]); over 100 µM in experiment [1] (setting [4]); over 100 µM with MRSA ATCC BAA-44 (18 h, read-out: MIC in the presence of 40% FBS, MRSA ATCC BAA-44, 40% FBS); 6 µM (≈ 2.83 µg/mL) with MRSA ATCC BAA-44 (MRSA ATCC BAA-44, absence of serum, read-out: MIC in the absence of serum); over 100 µM in the experiment with MRSA ATCC BAA-44 (in 40% FBS (note in the cell), read-out: MIC (μM) in MRSA BAA-44); 6 µM (≈ 2.83 µg/mL) with MRSA ATCC BAA-44 (setting [5]).

In the case of `C(=N\NC1=NCCCN1)/c1c[nH]c2cccc(OCc3ccccc3)c12` [Compound 35, (E)-2-(2-((4-(benzyloxy)-1H-indol-3-yl)methylene)hydrazineyl)-3,4,5,6-tetrahydropyrimidin-1-ium 2,2,2-trifluoroacetate], the MIC in experiment [1] (setting [3]) was over 100 µM; in experiment [1] (setting [4]), over 100 µM; in the experiment on MRSA ATCC BAA-44 (setting [5]), 50 µM (≈ 17.4 µg/mL).

As to `Clc1ccccc1N/N=C/c1c[nH]c2ccccc12` [Compound 12, (E)-3-((2-(2-chlorophenyl)hydrazineylidene)methyl)-1H-indole], the minimal inhibitory concentration (MIC) in experiment [1] (setting [3]) was 12.5 µM (≈ 3.37 µg/mL); in experiment [1] (setting [6]), over 100 µM; in experiment [1] (setting [4]) it was over 100 µM; in the experiment on MRSA ATCC BAA-44 (setting [5]), 25 µM (≈ 6.74 µg/mL).

As to `Nc1ccc(N/N=C/c2c[nH]c3cccc(OCc4ccccc4)c23)cc1` [Compound 38, (E)-4-(2-((4-(benzyloxy)-1H-indol-3-yl)methylene)hydrazineyl) benzenaminium chloride], the minimal inhibitory concentration (MIC) (in experiment [1] (setting [3]); in experiment [1] (setting [4]); with MRSA ATCC BAA-44 (setting [5])) was over 100 µM each time.

On to `COc1ccc(N/N=C/c2c[nH]c3cccc(OCc4ccccc4)c23)cc1` [Compound 30, (E)-4-(benzyloxy)-3-((2-(4-methoxyphenyl) hydrazineylidene)methyl)-1H-indole], for which the MIC in experiment [1] (setting [3]) was over 100 µM; in experiment [1] (setting [6]), over 100 µM; in experiment [1] (setting [4]) it was over 100 µM; in experiment [1] (Acinetobacter baumannii, ATCCBAA1797, 18 h, read-out: MIC in the presence of 40% FBS, A. baumannii ATCC BAA-1797, 40% FBS), 100 µM; in experiment [1] (Acinetobacter baumannii, ATCCBAA1797, A. baumannii ATCC BAA-1797, absence of serum, read-out: MIC in the absence of serum), 20 µM (≈ 7.43 µg/mL); with MRSA ATCC BAA-44 (setting [7]), over 100 µM.

Regarding `Cl.NCCCC(=O)Oc1cccc2[nH]cc(/C=N/Nc3ccc(F)cc3)c12` [Compound 42, (E)-4-((3-((2-(4-fluorophenyl)hydrazineylidene)methyl)-1H-indol-4-yl)oxy)-4-oxobutan-1-aminium chloride], the MIC was under 25 µM in experiment [1] (setting [8]) and 100 µM in the experiment on MRSA ATCC BAA-44 (setting [9]). The “MIC (μM) in MDR A. baumannii ATCC 1797 40% FBS” value in experiment [1] (40% FBS) is over 100 µM. For the same molecule, the “MIC (μM) in MRSA BAA-44” value against MRSA ATCC BAA-44 (no serum (note in the cell)) was under 25 in no μM.

As to `Oc1cccc2[nH]cc(/C=N/Nc3ccccc3)c12` [Compound 13, (E)-3-((2-phenylhydrazineylidene)methyl)-1H-indol-4-ol], the MIC in experiment [1] (setting [3]) is 5 µM (≈ 1.26 µg/mL); in experiment [1] (setting [6]) it was 100 µM (≈ 25.1 µg/mL); in experiment [1] (setting [4]), over 100 µM; with MRSA ATCC BAA-44 (setting [7]) it was 100 µM (≈ 25.1 µg/mL).

In the case of `CCCCCC(=O)Oc1cccc2[nH]cc(/C=N/Nc3ccc(Br)cc3)c12` [Compound 22, (E)-3-((2-(4-bromophenyl)hydrazineylidene)methyl)-1H-indol-4-yl hexanoate], the MIC was 25 µM (≈ 10.7 µg/mL) in experiment [1] (setting [3]), over 100 µM in experiment [1] (setting [4]), over 100 µM with MRSA ATCC BAA-44 (setting [9]) and 25 µM (≈ 10.7 µg/mL) with MRSA ATCC BAA-44 (setting [5]).

For `CC(C)(C)OC(=O)N[C@@H](CCCNC(=N)N)C(=O)Oc1cccc2[nH]cc(/C=N/Nc3ccc(Cl)cc3)c12` [Compound 17, (E)-3-((2-(4-chlorophenyl)hydrazineylidene)methyl)-1H-indol-4-yl (tert-butoxycarbonyl) argininate], the minimum inhibitory concentration (MIC) (in experiment [1] (setting [3]); in experiment [1] (setting [6]); in experiment [1] (setting [4]); with MRSA ATCC BAA-44 (setting [7])) was over 100 µM throughout.

With `CC(=O)O.Nc1ccc(N/N=C/c2c[nH]c3cccc(OCc4ccccc4)c23)cc1` [Compound 39, (E)-1-(4-aminophenyl)-2-((4-(benzyloxy)-1H-indol-3-yl)methylene)hydrazin-1-ium acetate], the minimal inhibitory concentration (MIC) in experiment [1] (setting [8]) is on record as over 100 µM. Besides, the “MIC (μM) in MDR A. baumannii ATCC 1797 40% FBS” value in experiment [1] (40% FBS) was over 100 µM. The “MIC (μM) in MRSA BAA-44” value against MRSA ATCC BAA-44 (no serum (note in the cell)) is reported as 50 (no serum) μM.

`N=C(N)NCCC(N)C(=O)Nc1cccc2[nH]cc(/N=N/c3ccc(Br)cc3)c12` (stereo not shown) [Compound 6, (E)-2-amino-N-(3-((4-bromophenyl)diazenyl)-1H-indol-4-yl)-4-guanidinobutanamide]: the MIC was 25 µM (≈ 11.4 µg/mL) in experiment [1] (setting [3]), over 100 µM in experiment [1] (setting [6]), 100 µM (≈ 45.7 µg/mL) in experiment [1] (setting [4]) and 25 µM (≈ 11.4 µg/mL) with MRSA ATCC BAA-44 (setting [7]).

For the molecule `C(=N\Nc1ncccn1)/c1c[nH]c2cccc(OCc3ccccc3)c12.O=C(O)C(F)(F)F` [Compound 40, (E)-2-((4-(benzyloxy)-1H-indol-3-yl)methylene)-1-(pyrimidin-2-yl)hydrazin-1-ium 2,2,2-trifluoroacetate], the MIC (in experiment [1] (setting [8]); in the experiment with MRSA ATCC BAA-44 (setting [7])) was over 100 µM each time. For the same molecule, the “MIC (μM) in MDR A. baumannii ATCC 1797 40% FBS” value in experiment [1] (40% FBS) was over 100 µM.

Regarding `Cn1cc(/C=N/Nc2ccc(F)cc2)c2c(OCc3ccccc3)cccc21` [Compound 44, (E)-4-(benzyloxy)-3-((2-(4-fluorophenyl)hydrazineylidene)methyl)-1-methyl-1H-indole], the MIC (in experiment [1] (setting [3]); in the experiment on MRSA ATCC BAA-44 (setting [7])) was under 100 µM in each case.
